Source: patent US9758524B2, “4-imidazopyridazin-1-yl-benzamides as Btk inhibitors” (Merck Sharp & Dohme B.V., priority 2011, dated 2017)

How the values were obtained:
FynT enzyme = FynT enzyme (Homo sapiens (Human), UniProt P06241); assay: FynT enzyme activity (IMAP fluorescence polarization assay); format: biochemical; details: 60 min pre-incubation, 0.2 μM ATP
Method in brief: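 Human FynT pre-incubated with compounds 60 min at room temperature, then reacted 2 h at room temperature with fluorescein-labelled p34cdc2 peptide (100 nM final). Stopped with IMAP binding solution; fluorescence polarization read after 60 min. Activity as % of ±ATP control difference; EC50 by curve fitting.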

Btk enzyme (His-Btk) = Btk enzyme (His-Btk) (Homo sapiens (Human), UniProt Q06187); assay: Btk enzyme activity (IMAP fluorescence polarization assay); details: read-out: EC50 Btk activity values; IMAP, 60 min pre-incubation, 5 μM ATP; bin bound in nM
Btk enzyme (His-Btk), sequence (Q06187 whole entry): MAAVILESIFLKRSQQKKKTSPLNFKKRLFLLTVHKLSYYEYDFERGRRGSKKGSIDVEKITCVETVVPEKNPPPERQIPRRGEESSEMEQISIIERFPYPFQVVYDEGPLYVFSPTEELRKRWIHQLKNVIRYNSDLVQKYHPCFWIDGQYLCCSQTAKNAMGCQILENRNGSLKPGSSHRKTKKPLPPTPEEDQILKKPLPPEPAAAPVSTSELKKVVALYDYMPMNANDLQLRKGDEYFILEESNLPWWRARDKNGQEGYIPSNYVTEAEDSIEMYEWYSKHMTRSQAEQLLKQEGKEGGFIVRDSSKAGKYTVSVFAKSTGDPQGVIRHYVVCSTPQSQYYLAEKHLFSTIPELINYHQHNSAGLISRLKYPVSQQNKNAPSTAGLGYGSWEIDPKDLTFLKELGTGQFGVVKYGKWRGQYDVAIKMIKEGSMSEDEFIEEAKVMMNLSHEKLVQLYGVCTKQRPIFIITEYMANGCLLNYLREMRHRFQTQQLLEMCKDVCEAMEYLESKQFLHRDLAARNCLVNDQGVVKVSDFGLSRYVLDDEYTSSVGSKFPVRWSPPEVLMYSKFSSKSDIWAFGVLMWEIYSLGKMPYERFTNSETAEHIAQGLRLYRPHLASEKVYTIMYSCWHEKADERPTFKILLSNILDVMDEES
Method: Inhibition of kinase activity can be measured using the Immobilized Metal Assay for Phosphochemicals (IMAP) assay. IMAP is a homogeneous fluorescence polarization (FP) assay based on affinity capture of phosphorylated peptide substrates. IMAP uses fluorescein-labeled peptide substrates that, upon phosphorylation by a protein kinase, bind to so-called IMAP nanoparticles, which are derivatized with trivalent metal complexes.
Final peptide substrate concentration in assay is 50 nM.

Lck enzyme = Lck enzyme (Homo sapiens (Human), UniProt P06239); assay: Lck enzyme activity (IMAP fluorescence polarization assay)
Lck enzyme, sequence (P06239 whole entry): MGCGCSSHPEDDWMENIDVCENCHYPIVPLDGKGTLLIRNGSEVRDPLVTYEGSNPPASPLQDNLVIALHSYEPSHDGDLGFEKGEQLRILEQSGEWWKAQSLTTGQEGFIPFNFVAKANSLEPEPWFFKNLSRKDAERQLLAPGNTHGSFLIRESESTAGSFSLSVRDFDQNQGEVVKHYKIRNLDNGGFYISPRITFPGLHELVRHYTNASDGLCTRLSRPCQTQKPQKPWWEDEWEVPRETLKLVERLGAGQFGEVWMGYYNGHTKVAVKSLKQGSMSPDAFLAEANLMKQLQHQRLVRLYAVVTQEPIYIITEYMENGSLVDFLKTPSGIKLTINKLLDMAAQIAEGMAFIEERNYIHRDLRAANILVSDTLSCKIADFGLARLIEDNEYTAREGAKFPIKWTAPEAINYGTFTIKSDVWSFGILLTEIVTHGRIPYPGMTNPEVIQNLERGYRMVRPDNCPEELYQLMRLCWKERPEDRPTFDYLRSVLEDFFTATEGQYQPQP

Src enzyme = Src enzyme (Homo sapiens (Human), UniProt P12931); assay: Src enzyme activity (IMAP fluorescence polarization assay); details: read-out: EC50 Src activity values; IMAP, 60 min pre-incubation, 4 μM ATP
Src enzyme, sequence (P12931 whole entry, looked up): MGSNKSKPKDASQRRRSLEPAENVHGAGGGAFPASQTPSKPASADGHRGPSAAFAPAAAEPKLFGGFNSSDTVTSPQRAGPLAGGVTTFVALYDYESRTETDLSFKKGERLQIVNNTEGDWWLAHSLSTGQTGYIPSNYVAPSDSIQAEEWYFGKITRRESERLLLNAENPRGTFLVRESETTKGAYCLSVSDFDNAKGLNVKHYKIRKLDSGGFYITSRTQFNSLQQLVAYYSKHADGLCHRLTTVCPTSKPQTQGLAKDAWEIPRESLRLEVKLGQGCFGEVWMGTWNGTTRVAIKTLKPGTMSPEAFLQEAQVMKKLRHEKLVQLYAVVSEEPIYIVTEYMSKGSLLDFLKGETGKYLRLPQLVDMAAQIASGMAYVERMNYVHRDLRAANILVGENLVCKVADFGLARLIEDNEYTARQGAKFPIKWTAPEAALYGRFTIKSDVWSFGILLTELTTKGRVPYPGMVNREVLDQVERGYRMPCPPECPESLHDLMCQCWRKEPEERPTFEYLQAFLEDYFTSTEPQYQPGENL

Lyn enzyme = Lyn enzyme (Homo sapiens (Human), UniProt P07948); assay: Lyn enzyme activity (IMAP fluorescence polarization assay); details: 60 min pre-incubation, 2 μM ATP
Lyn enzyme, sequence (P07948 whole entry): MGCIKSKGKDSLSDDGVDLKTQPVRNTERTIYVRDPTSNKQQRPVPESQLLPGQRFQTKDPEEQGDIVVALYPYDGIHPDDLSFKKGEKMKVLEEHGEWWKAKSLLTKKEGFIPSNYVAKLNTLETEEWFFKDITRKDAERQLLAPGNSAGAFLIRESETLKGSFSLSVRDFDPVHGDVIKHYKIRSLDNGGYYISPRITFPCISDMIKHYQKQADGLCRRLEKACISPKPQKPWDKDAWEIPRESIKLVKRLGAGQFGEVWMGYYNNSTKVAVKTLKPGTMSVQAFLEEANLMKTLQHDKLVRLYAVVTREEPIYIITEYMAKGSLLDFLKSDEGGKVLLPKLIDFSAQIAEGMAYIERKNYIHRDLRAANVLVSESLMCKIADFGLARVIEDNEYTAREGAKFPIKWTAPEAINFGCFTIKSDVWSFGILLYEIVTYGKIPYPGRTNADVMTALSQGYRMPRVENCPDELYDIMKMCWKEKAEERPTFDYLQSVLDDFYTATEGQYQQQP

FynT enzyme, sequence (P06241 other isoform, or with tags, fused parts or gaps): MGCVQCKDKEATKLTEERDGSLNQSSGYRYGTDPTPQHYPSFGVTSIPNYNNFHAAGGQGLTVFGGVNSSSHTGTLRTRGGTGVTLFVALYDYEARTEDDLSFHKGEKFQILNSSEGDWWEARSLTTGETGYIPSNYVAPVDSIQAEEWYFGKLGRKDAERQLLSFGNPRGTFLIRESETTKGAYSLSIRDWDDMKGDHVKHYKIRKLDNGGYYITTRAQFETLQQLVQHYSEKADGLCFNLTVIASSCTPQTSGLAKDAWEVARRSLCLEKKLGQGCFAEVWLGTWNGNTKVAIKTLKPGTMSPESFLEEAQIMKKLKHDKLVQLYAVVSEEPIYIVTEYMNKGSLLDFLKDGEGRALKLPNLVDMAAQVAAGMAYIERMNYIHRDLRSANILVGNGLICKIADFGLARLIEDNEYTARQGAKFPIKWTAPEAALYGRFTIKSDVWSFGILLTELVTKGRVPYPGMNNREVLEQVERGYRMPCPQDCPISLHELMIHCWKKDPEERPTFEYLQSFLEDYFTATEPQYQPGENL

EC50 (FynT enzyme): ≥ 1 µM
EC50 (Btk enzyme (His-Btk)): < 10 nM
EC50 (Lck enzyme): 0.1 to 1 µM
EC50 Lck activity values (Lck enzyme; IMAP, 60 min pre-incubation, 6 μM ATP, bin bound in μM): <1 µM
EC50 (Src enzyme): ≥ 1 µM
EC50 Lyn activity values (Lyn enzyme; bin bound in μM): <1 µM
EC50 (Lyn enzyme; EC50 Lyn activity values, bin bound in nM): 100 to 1000 nM
SMILES: C=CC(=O)N1CCC[C@H]1c1nc(-c2ccc(C(=O)Nc3cc(CC)ccn3)cc2)c2c(N)nccn12 [Example 126, (S)-4-(3-(1-acryloylpyrrolidin-2-yl)-8-aminoimidazo[1,5-a]pyrazin-1-yl)-N-(4-ethylpyridin-2-yl)benzamide]
